Data reported in article PMC6952396, “Structural basis for itraconazole-mediated NPC1 inhibition” (Nature Communications, 2020).

System: T1, wild-type human NPC1
T1 construct: expressed in transfected cells; host or cells: HEK-293S GnTI- cells (ATCC, CRL-3022), PEI transfection
Experiment: Cross-linking of P-X to NPC1 in intact HEK-293S GnTI- cells overexpressing NPC1
Assay type: cell-based
Details: for inhibition of P-X cross-linking to WT NPC1 in intact cells: 0.3 μM P-X and 3 μM competitor, 1 h at 37 °C
Description: pNPC1 encoding wild-type human NPC1 (amino acids 1–1278) followed sequentially by three tandem copies of the Flag epitope tag ([…]) was constructed into pcDNA3.1. Expression is achieved with the cytomegalovirus (CMV) promoter. Point mutations were introduced into the coding region of pNPC1 by site-directed mutagenesis using the QuikChange II XL Site-Directed Mutagenesis Kit (Agilent Technologies, Santa Clara, CA) and primers which are indicated in Supplementary Table 2. The coding region of each plasmid was sequenced to ensure integrity of the construct.
For cross-linking of P-X to NPC1 and mutants in intact cells, the mammalian HEK-293S GnTI^- cells (ATCC, CRL-3022) overexpressing NPC1 and mutants were set up in 500 mL of freestyle medium with 2% FCS at a density of 2 × 10^6 cells per ml. The cells were transfected with 0.5 mg of the indicated plasmid using PEI (Polysciences) as the transfection agent. After 48 h, cell culture was aliquoted to 10 cm dishes. Each dish received a direct addition of DMSO (final concentration, 0.2%) containing 0.3 μM P-X and 3 μM of various competitor compounds as described in the figure legends. After incubation for 1 h at 37 °C in the dark and without a change of media, the cells were irradiated for 10 min at room temperature under 306-nm UV light (Atlanta Light Bulb Co.) in a UV Stratalinker 2400 apparatus (Stratagene). Cells were subjected to centrifugation at 4000 g for 5 min. The pellet was washed once with PBS and then solubilized with 1 mL of buffer containing 50 mM Hepes pH 7.5, 150 mM NaCl, 1%(wt/vol) n-Dodecyl-β-D-maltopyranoside (DDM, Anatrace). Each solubilized lysate was incubated at room temperature for 1 h, and clarified by centrifugation at 15000 g for 1 min. The supernatant was then transferred to a fresh tube and incubated with anti-FLAG M2 magnetic beads for 1 h. After which the beads were applied to a magnet, washed three times with 1 mL of wash buffer containing 50 mM Hepes pH 7.5, 150 mM NaCl, 0.02% (wt/vol) DDM, and eluted with 100 μL of wash buffer containing 15 μg of 3x FLAG peptide. The purified protein was then tagged with Alexa Fluor 532 using click chemistry as described above. An aliquot of each sample was subjected to 8% SDS/PAGE, and fluorescent-labeled proteins were visualized by in-gel fluorescence as described above. After scanning the gel, the proteins were transferred to nitrocellulose and blotted with mouse monoclonal anti-Flag.

Row | Structure (SMILES) | cross-linking of P-X to WT NPC1 in intact cells (0.3 μM P-X) | inhibition of P-X cross-linking to WT NPC1 in intact cells | inhibition of P-X cross-linking to WT NPC1 in intact cells (listed as ketoconazole)
1 | C#CCOc1ccc(C(=O)c2ccc(C(=O)OC(C)C(CC)n3ncn(-c4ccc(N5CCN(c6ccc(OCC7COC(Cn8cncn8)(c8ccc(F)cc8F)O7)cc6)CC5)cc4)c3=O)cc2)cc1 (stereo not shown) [P-X] | can easily cross-link |  | 
2 | CCC(C)n1ncn(-c2ccc(N3CCN(c4ccc(OCC5COC(Cn6cncn6)(c6ccc(Cl)cc6Cl)O5)cc4)CC3)cc2)c1=O (stereo not shown) [Itraconazole mixture, itraconazole] |  | inhibits this reaction | 
3 | CC(=O)N1CCN(c2ccc(OCC3COC(Cn4ccnc4)(c4ccc(Cl)cc4Cl)O3)cc2)CC1 (stereo not shown) [Ketoconazole, ketoconazole] |  | could not inhibit | does not
